ChEMBL document CHEMBL1131794, “The synthesis and evaluation of 6-alkylidene-2'beta-substituted penam sulfones as beta-lactamase inhibitors” (Bioorg Med Chem Lett, 1999)

Assays:
[1] = biological target: T1, Beta-lactamase (Staphylococcus aureus, UniProt P00807); assay: Inhibitory activity against serine Beta-lactamase derived from Staphylococcus aureus
[2] = biological target: T1, Beta-lactamase; assay: Inhibitory activity against serine beta-lactamase, PC1 (class A) derived from Staphylococcus aureus
[3] = test system: Aeromonas sobria; assay: In vitro synergistic activity against Aeromonas sobria (Asb A, OXA-12, Asb M); assay type: functional; further: test concentration or dose not given here
[4] = test system: Escherichia coli; assay: In vitro synergistic activity against Escherichia coli C600N + (Imi-1); assay type: functional
[5] = test system: Escherichia coli; assay: In vitro synergistic activity against Escherichia coli C600N + (L1); assay type: functional
[6] = test system: Escherichia coli; assay: In vitro synergistic activity against Escherichia coli C600N + (MIR-1); assay type: functional
[7] = test system: Escherichia coli; assay: In vitro synergistic activity against Escherichia coli C600N + (PSE-1); assay type: functional
[8] = test system: Escherichia coli; assay: In vitro synergistic activity against Escherichia coli C600N + (SHV-1); assay type: functional
[9] = test system: Escherichia coli; assay: In vitro synergistic activity against Escherichia coli C600N + (Sme-1); assay type: functional
[10] = test system: Escherichia coli; assay: In vitro synergistic activity against Escherichia coli C600N + (ampR ampC); assay type: functional; further: test concentration or dose not given here
[11] = test system: Escherichia coli; assay: In vitro synergistic activity against Escherichia coli GC 6266 clinical isolate; assay type: functional
[12] = test system: Escherichia coli; assay: In vitro synergistic activity against Escherichia coli GC6265 (TEM-1); assay type: functional
[13] = test system: Klebsiella aerogenes; assay: In vitro synergistic activity against Enterobacter aerogenes GC 6268 clinical isolate; assay type: functional; further: test concentration or dose not given here
[14] = test system: Escherichia coli; assay: In vitro synergistic activity against Escherichia coli 300 + (TEM-1); assay type: functional
[15] = test system: Escherichia coli; assay: In vitro synergistic activity against Escherichia coli 300 + (ampR ampC); assay type: functional; further: test concentration or dose not given here
[16] = test system: Escherichia coli; assay: In vitro synergistic activity against Escherichia coli 4100 (no beta-lactamase); assay type: functional
[17] = test system: Escherichia coli; assay: In vitro synergistic activity against Escherichia coli ATCC 25922 (no beta-lactamase); assay type: functional; further: test concentration or dose not given here
[18] = test system: Escherichia coli; assay: In vitro synergistic activity against Escherichia coli ATCC 35218 (TEM-1); assay type: functional
[19] = test system: Escherichia coli; assay: In vitro synergistic activity against Escherichia coli C600N (no beta-lactamase); assay type: functional
[20] = test system: Escherichia coli; assay: In vitro synergistic activity against Escherichia coli C600N + (IRT-2); assay type: functional; further: test concentration or dose not given here
[21] = test system: Enterobacter cloacae; assay: In vitro synergistic activity against Enterobacter cloacae (Imi-1+AmpC); assay type: functional
[22] = test system: Enterobacter cloacae; assay: In vitro synergistic activity against Enterobacter cloacae SC12629 (AmpC inducible); assay type: functional; further: test concentration or dose not given here
[23] = test system: Klebsiella pneumoniae; assay: In vitro synergistic activity against Klebsiella pneumoniae GC 6269 clinical isolate; assay type: functional; further: test concentration or dose not given here
[24] = test system: Klebsiella pneumoniae; assay: In vitro synergistic activity against Klebsiella pneumoniae (ACT-1 + 3 blas, IPM=S); assay type: functional; further: test concentration or dose not given here
[25] = test system: Pseudomonas aeruginosa; assay: In vitro synergistic activity against Pseudomonas aeruginosa Ps505A1 (AmpC derepressed); assay type: functional; further: test concentration or dose not given here
[26] = test system: Serratia marcescens; assay: In vitro synergistic activity against Serratia marcescens GC 4132 (Amp C); assay type: functional; further: test concentration or dose not given here
[27] = test system: Staphylococcus aureus; assay: In vitro synergistic activity against Staphylococcus aureus (PC1); assay type: functional; further: test concentration or dose not given here
[28] = test system: Escherichia coli; assay: In vitro synergistic activity against Escherichia coli C600N + (P99); assay type: functional
[29] = test system: Stenotrophomonas maltophilia; assay: In vitro synergistic activity against Stenotrophomonas maltophilia 1712(L1); assay type: functional; further: test concentration or dose not given here
[30] = test system: Klebsiella pneumoniae; assay: In vitro synergistic activity against Klebsiella pneumoniae KC2 (TEM-10); assay type: functional; further: test concentration or dose not given here
[31] = test system: Escherichia coli; assay: In vitro synergistic activity against Escherichia coli GC6267 clinical isolate; assay type: functional
[32] = test system: Escherichia coli; assay: In vitro synergistic activity against Escherichia coli 4100 + (CCRA); assay type: functional
[33] = biological target: Beta-lactamase TEM (Escherichia coli, UniProt P62593); assay: Inhibitory activity against serine Beta-lactamase TEM derived from […]; assay type: single protein
Beta-lactamase TEM, sequence (P62593 whole entry): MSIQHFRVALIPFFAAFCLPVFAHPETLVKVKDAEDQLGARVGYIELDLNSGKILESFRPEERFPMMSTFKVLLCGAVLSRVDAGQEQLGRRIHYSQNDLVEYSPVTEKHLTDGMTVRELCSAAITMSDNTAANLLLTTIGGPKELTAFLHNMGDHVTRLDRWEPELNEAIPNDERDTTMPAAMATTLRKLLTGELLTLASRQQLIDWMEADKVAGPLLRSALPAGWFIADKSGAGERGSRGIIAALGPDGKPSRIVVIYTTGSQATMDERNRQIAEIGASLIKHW

[34] = test system: Escherichia coli; assay: In vitro synergistic activity against Escherichia coli C600N + (OXA-10) {PSE-2}; assay type: functional
[35] = test system: Escherichia coli; assay: In vitro synergistic activity against Escherichia coli C600N + (SHV-4); assay type: functional
[36] = test system: Escherichia coli; assay: In vitro synergistic activity against Escherichia coli C600N + (TEM-1); assay type: functional
[37] = test system: Escherichia coli; assay: In vitro synergistic activity against Escherichia coli C600N + (TEM-10); assay type: functional
[38] = test system: Escherichia coli; assay: In vitro synergistic activity against Escherichia coli 300 (no beta-lactamase, imp mutant); assay type: functional

T1 sequence (P00807 whole entry): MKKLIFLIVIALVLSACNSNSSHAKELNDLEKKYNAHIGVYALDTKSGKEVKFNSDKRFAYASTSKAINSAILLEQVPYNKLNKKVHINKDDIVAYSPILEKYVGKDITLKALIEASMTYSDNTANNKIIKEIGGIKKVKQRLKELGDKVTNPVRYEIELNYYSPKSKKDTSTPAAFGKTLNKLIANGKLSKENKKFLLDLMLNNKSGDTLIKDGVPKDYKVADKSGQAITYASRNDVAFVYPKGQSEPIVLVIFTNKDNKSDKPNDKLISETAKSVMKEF

| SMILES | IC50 [1] [µM] | IC50 [2] [µM] | MIC [3] [µg/mL] | MIC [4] [µg/mL] | MIC [5] [µg/mL] | MIC [6] [µg/mL] | MIC [7] [µg/mL] | MIC [8] [µg/mL] | MIC [9] [µg/mL] | MIC [10] [µg/mL] | MIC [11] [µg/mL] | MIC [12] [µg/mL] | MIC [13] [µg/mL] | MIC [14] [µg/mL] | MIC [15] [µg/mL] | MIC [16] [µg/mL] | MIC [17] [µg/mL] | MIC [18] [µg/mL] | MIC [20] [µg/mL] | MIC [21] [µg/mL] | further results |
| --- | --- | --- | --- | --- | --- | --- | --- | --- | --- | --- | --- | --- | --- | --- | --- | --- | --- | --- | --- | --- | --- |
| C[C@]1(COC(=O)Cc2ccc(O)c(O)c2)[C@H](C(=O)O)N2C(=O)/C(=C/C(=O)O)C2S1(=O)=O (stereo partly drawn) | 0.37 | 116 |  |  |  |  |  |  |  |  |  |  |  |  |  |  |  |  |  |  |  |
| CCN1CCN(C(=O)N[C@@H](C(=O)N[C@@H]2C(=O)N3[C@@H]2SC(C)(C)[C@@H]3C(=O)O)c2ccccc2)C(=O)C1=O [PIPERACILLIN] |  |  | 64 | > 64 | > 64 | 64 | 32 | 4 | > 64 | > 64 | > 64 | > 64 | > 64 | > 64 | 16 | < 0.06 | 2 | > 64 | > 64 | > 64 | MIC [19]: 2 µg/mL; MIC [22]: > 64 µg/mL; MIC [23]: > 64 µg/mL; MIC [24]: > 64 µg/mL; MIC [25]: > 64 µg/mL; MIC [26]: 64 µg/mL; MIC [27]: > 64 µg/mL; MIC [28]: > 64 µg/mL; MIC [29]: > 64 µg/mL; MIC [30]: > 64 µg/mL; MIC [31]: > 64 µg/mL; MIC [32]: > 64 µg/mL |
| COC(=O)/C=C1/C(=O)N2C1S(=O)(=O)[C@@](C)(COC(=O)CSc1nnnn1C)[C@@H]2C(=O)O (stereo partly drawn) | 13.2 | 940 |  |  |  |  |  |  |  |  |  |  |  |  |  |  |  |  |  |  | IC50 [33]: 2.37 µM |
| CC(=O)OC[C@@]1(C)[C@H](C(=O)O)N2C(=O)/C(=C/c3ccccn3)C2S1(=O)=O (stereo partly drawn) | 0.062 | 0.66 |  |  |  |  |  |  |  |  |  |  |  |  |  |  |  |  |  |  | IC50 [33]: 0.004 µM |
| CCN1CCN(C(=O)NC(C(=O)N[C@@H]2C(=O)N3[C@@H]2SC(C)(C)[C@@H]3C(=O)[O-])c2ccccc2)C(=O)C1=O.C[C@]1(COC(=O)Cc2ccc(O)c(O)c2)[C@H](C(=O)[O-])N2C(=O)/C(=C/c3ccccn3)C2S1(=O)=O.[Na+].[Na+] (stereo partly drawn) |  |  | 1 | 8 | 64 | 8 | 2 | 2 | 8 | 16 | 16 | 4 | 64 | 1 | 2 | < 0.06 | 1 | 1 | 2 | 16 | MIC [34]: 2 µg/mL; MIC [35]: 2 µg/mL; MIC [36]: 2 µg/mL; MIC [37]: 2 µg/mL; MIC [38]: < 0.006 µg/mL; MIC [19]: 1 µg/mL; MIC [22]: 64 µg/mL; MIC [23]: 8 µg/mL; MIC [24]: 32 µg/mL; MIC [25]: 2 µg/mL; MIC [26]: 4 µg/mL; MIC [27]: 1 µg/mL; MIC [28]: 16 µg/mL; MIC [29]: > 64 µg/mL; MIC [30]: 4 µg/mL; MIC [31]: 16 µg/mL; MIC [32]: > 64 µg/mL |
| C[C@]1(CCl)[C@H](C(=O)O)N2C(=O)/C(=C/C(=O)O)C2S1(=O)=O (stereo partly drawn) | 527 | 2100 |  |  |  |  |  |  |  |  |  |  |  |  |  |  |  |  |  |  | IC50 [33]: 120 µM |
| C[C@@H](O)[C@H]1C(=O)N2C(C(=O)O)=C(SCCNC=N)C[C@H]12 [IMIPENEM ANHYDROUS] |  |  | > 64 | 4 | 2 | 0.5 | 0.12 | 0.12 | 64 | 0.5 | 0.25 | < 0.06 | 1 | < 0.06 | < 0.06 | 0.12 | < 0.06 | < 0.06 | 0.25 | > 64 | MIC [34]: 0.12 µg/mL; MIC [35]: 0.12 µg/mL; MIC [36]: 0.12 µg/mL; MIC [37]: 0.12 µg/mL; MIC [22]: 1 µg/mL; MIC [23]: 0.12 µg/mL; MIC [24]: 1 µg/mL; MIC [25]: 0.5 µg/mL; MIC [26]: 1 µg/mL; MIC [27]: < 0.06 µg/mL; MIC [28]: 0.25 µg/mL; MIC [29]: > 64 µg/mL; MIC [30]: < 0.06 µg/mL; MIC [31]: 0.12 µg/mL; MIC [32]: 16 µg/mL |
| CCN1CCN(C(=O)NC(C(=O)N[C@@H]2C(=O)N3[C@@H]2SC(C)(C)[C@@H]3C(=O)[O-])c2ccccc2)C(=O)C1=O.C[C@]1(Cn2ccnn2)C(C(=O)[O-])N2C(=O)C[C@H]2S1(=O)=O.[Na+].[Na+] (stereo partly drawn) |  |  | 64 | 16 | > 64 | 8 | 1 | 2 | 8 | 8 | 16 | 4 | 32 | 4 | 4 | < 0.06 | 2 | 1 | 8 | 16 | MIC [34]: 2 µg/mL; MIC [35]: 2 µg/mL; MIC [36]: 4 µg/mL; MIC [37]: 2 µg/mL; MIC [19]: 2 µg/mL; MIC [22]: > 64 µg/mL; MIC [23]: 8 µg/mL; MIC [24]: 32 µg/mL; MIC [25]: 16 µg/mL; MIC [26]: 32 µg/mL; MIC [27]: 1 µg/mL; MIC [28]: 8 µg/mL; MIC [29]: > 64 µg/mL; MIC [30]: 2 µg/mL; MIC [31]: 16 µg/mL; MIC [32]: > 64 µg/mL |
| C[C@]1(COC=O)[C@H](C(=O)O)N2C(=O)/C(=C/C(=O)O)C2S1(=O)=O (stereo partly drawn) | 0.592 | 173 |  |  |  |  |  |  |  |  |  |  |  |  |  |  |  |  |  |  |  |
| CC(=O)OC[C@@]1(C)[C@H](C(=O)O)N2C(=O)/C(=C/C(N)=O)C2S1(=O)=O (stereo partly drawn) | 8.48 | 2.21 |  |  |  |  |  |  |  |  |  |  |  |  |  |  |  |  |  |  | IC50 [33]: 0.31 µM |
